Measured values published in ChEMBL document CHEMBL5360558, “Molecular design, synthesis and anticancer activity of new thiopyrano[2,3-d]thiazoles based on 5-hydroxy-1,4-naphthoquinone (juglone)” (Eur J Med Chem, 2023).
Calls of active or inactive are those of the source. The calls are words filed in the database; no cut-off is given here.

Experiments:
NCI-H322M = assay: Anticancer activity against human NCI-H322M cells assessed as cell growth at 10 uM incubated for 48 hrs by sulforhodamine B assay; type: functional; settings: read-out: Activity
DU-145 [1] = assay: Anticancer activity against human DU-145 cells assessed as cell growth at 10 uM incubated for 48 hrs by sulforhodamine B assay; type: functional; settings: read-out: Activity
M14 [2] = assay: Growth inhibition of human M14 cells incubated for 48 hrs by sulforhodamine B spectrophotometric assay; type: functional
SK-MEL-28 = assay: Growth inhibition of human SK-MEL-28 cells incubated for 48 hrs by sulforhodamine B spectrophotometric assay; type: functional
UACC-62 = assay: Growth inhibition of human UACC-62 cells incubated for 48 hrs by sulforhodamine B spectrophotometric assay; type: functional
786-0 = assay: Growth inhibition of human 786-0 cells incubated for 48 hrs by sulforhodamine B spectrophotometric assay; type: functional
RXF 393 = assay: Growth inhibition of human RXF 393 cells incubated for 48 hrs by sulforhodamine B spectrophotometric assay; type: functional
MCF7 = assay: Growth inhibition of human MCF7 cells incubated for 48 hrs by sulforhodamine B spectrophotometric assay; type: functional
T47D = assay: Growth inhibition of human T47D cells incubated for 48 hrs by sulforhodamine B spectrophotometric assay; type: functional
CCRF-CEM [3] = assay: Growth inhibition against human CCRF-CEM cells assessed as total growth inhibitory concentration incubated for 48 hrs by sulforhodamine B spectrophotometric assay; type: functional
HL-60 = assay: Growth inhibition against human HL-60 cells assessed as total growth inhibitory concentration incubated for 48 hrs by sulforhodamine B spectrophotometric assay; type: functional
HCT-116 = assay: Growth inhibition against human HCT-116 cells assessed as total growth inhibitory concentration incubated for 48 hrs by sulforhodamine B spectrophotometric assay; type: functional
SF-268 [4] = assay: Growth inhibition against human SF-268 cells assessed as total growth inhibitory concentration incubated for 48 hrs by sulforhodamine B spectrophotometric assay; type: functional
SF-295 = assay: Growth inhibition against human SF-295 cells assessed as total growth inhibitory concentration incubated for 48 hrs by sulforhodamine B spectrophotometric assay; type: functional
SF-539 = assay: Growth inhibition against human SF-539 cells assessed as total growth inhibitory concentration incubated for 48 hrs by sulforhodamine B spectrophotometric assay; type: functional
SNB-75 = assay: Growth inhibition against human SNB-75 cells assessed as total growth inhibitory concentration incubated for 48 hrs by sulforhodamine B spectrophotometric assay; type: functional
SK-MEL-5 = assay: Growth inhibition against human SK-MEL-5 cells assessed as total growth inhibitory concentration incubated for 48 hrs by sulforhodamine B spectrophotometric assay; type: functional
ACHN = assay: Growth inhibition against human ACHN cells assessed as total growth inhibitory concentration incubated for 48 hrs by sulforhodamine B spectrophotometric assay; type: functional
TK-10 = assay: Growth inhibition against human TK-10 cells assessed as total growth inhibitory concentration incubated for 48 hrs by sulforhodamine B spectrophotometric assay; type: functional
PC-3 = assay: Growth inhibition against human PC-3 cells assessed as total growth inhibitory concentration incubated for 48 hrs by sulforhodamine B spectrophotometric assay; type: functional
MDA-MB-231 [5] = assay: Growth inhibition against human MDA-MB-231 cells assessed as total growth inhibitory concentration incubated for 48 hrs by sulforhodamine B spectrophotometric assay; type: functional
CCRF-CEM [6] = assay: Growth inhibition against human CCRF-CEM cells assessed as lethal concentration incubated for 48 hrs by sulforhodamine B spectrophotometric assay; type: functional; settings: read-out: LC50 (the source's name)
K562 = assay: Growth inhibition against human K562 cells assessed as lethal concentration incubated for 48 hrs by sulforhodamine B spectrophotometric assay; type: functional; settings: read-out: LC50 (the source's name)
COLO 205 = assay: Growth inhibition against human COLO 205 cells assessed as lethal concentration incubated for 48 hrs by sulforhodamine B spectrophotometric assay; type: functional; settings: read-out: LC50 (the source's name)
KM12 = assay: Growth inhibition against human KM12 cells assessed as lethal concentration incubated for 48 hrs by sulforhodamine B spectrophotometric assay; type: functional; settings: read-out: LC50 (the source's name)
SF-268 [7] = assay: Growth inhibition against human SF-268 cells assessed as lethal concentration incubated for 48 hrs by sulforhodamine B spectrophotometric assay; type: functional; settings: read-out: LC50 (the source's name)
LOX IMVI = assay: Growth inhibition against human LOX IMVI cells assessed as lethal concentration incubated for 48 hrs by sulforhodamine B spectrophotometric assay; type: functional; settings: read-out: LC50 (the source's name)
M14 [8] = assay: Growth inhibition against human M14 cells assessed as lethal concentration incubated for 48 hrs by sulforhodamine B spectrophotometric assay; type: functional; settings: read-out: LC50 (the source's name)
MDA-MB-435 = assay: Growth inhibition against human MDA-MB-435 cells assessed as lethal concentration incubated for 48 hrs by sulforhodamine B spectrophotometric assay; type: functional; settings: read-out: LC50 (the source's name)
DU-145 [9] = assay: Growth inhibition against human DU-145 cells assessed as lethal concentration incubated for 48 hrs by sulforhodamine B spectrophotometric assay; type: functional; settings: read-out: LC50 (the source's name)
CCRF-CEM [10] = assay: Induction of cell cycle arrest in human CCRF-CEM cells assessed as accumulation of cells at sub-G1 phase at 4.14 uM incubated for 24 hrs by propidium iodide staining based flow cytometry analysis (reference value: 2.36 +/- 0.049%); type: functional
CCRF-CEM [11] = assay: Induction of cell cycle arrest in human CCRF-CEM cells assessed as accumulation of cells at sub-G1 phase at 20.7 uM incubated for 24 hrs by propidium iodide staining based flow cytometry analysis (reference value: 2.36 +/- 0.049%); type: functional
CCRF-CEM [12] = assay: Induction of cell cycle arrest in human CCRF-CEM cells assessed as accumulation of cells at G0/G1 phase at 20.7 uM incubated for 24 hrs by propidium iodide staining based flow cytometry analysis (reference value: 38.68 +/- 0.75%); type: functional
CCRF-CEM [13] = assay: Induction of cell cycle arrest in human CCRF-CEM cells assessed as accumulation of cells at M phase at 4.14 uM incubated for 24 hrs by propidium iodide staining based flow cytometry analysis (reference value: 1.97 +/- 0.042%); type: functional
[14] = Acute toxicity in C57BL/6 mouse assessed as ratio of spleen weight to body weight at 20 mg/kg,ip administration and observed after 22 days (reference value: 0.53 +/- 0.18); type: organism-based; settings: in vivo, 528 h, time 22 day
[15] = Acute toxicity in C57BL/6 mouse assessed as ratio of liver weight to body weight at 20 mg/kg,ip administration and observed after 22 days (reference value: 5.22 +/- 0.42); type: organism-based; settings: in vivo, 528 h, time 22 day
[16] = GSH reactivity of compound at pH 7.4 phosphate buffer assessed as GSH-adduct formation at 1 mM incubated for 1 hr in presence of sodium borohydride by spectrophotometric analysis; type: physicochemical; settings: pH 7.4, 1 h, 1000 µM
Jurkat [17] = assay: Induction of apoptosis in human Jurkat cells assessed as DNA damage by DNA laddering assay; type: functional, cell-based
Jurkat [18] = assay: Induction of apoptosis in human Jurkat cells assessed as necrotic cells at 25 uM by DNA laddering assay; type: functional, cell-based
MDA-MB-231 [19] = assay: Induction of apoptosis in human MDA-MB-231 cells assessed as increase in caspase-8 level at 5 uM incubated for 24 hrs by flow cytometry analysis; type: functional
MDA-MB-231 [20] = assay: Induction of apoptosis in human MDA-MB-231 cells assessed as increase in caspase-9 level at 5 uM incubated for 24 hrs by flow cytometry analysis; type: functional
[21] = Acute toxicity in C57BL/6 mouse assessed as decrease in body mass at 20 mg/kg,ip administration observed after 22 days; type: organism-based; settings: in vivo, 528 h, time 22 day

O=C1C2=C(C(=O)c3c(O)cccc31)C(c1ccco1)c1sc(=O)[nH]c1S2 (configuration not stated)
growth at 10 µM (NCI-H322M): -97.7% | growth at 10 µM (DU-145 [1]): -93.9% | GI50 (M14 [2]): 1060 nM | GI50 (SK-MEL-28): 1870 nM | GI50 (UACC-62): 1760 nM | GI50 (786-0): 7.09 µM | GI50 (RXF 393): 2020 nM | GI50 (MCF7): 1390 nM | GI50 (T47D): 2870 nM | TGI (CCRF-CEM [3]): > 100 µM | TGI (HL-60): 6.09 µM | TGI (HCT-116): > 100 µM | TGI (SF-268 [4]): 19.2 µM | TGI (SF-295): 3.59 µM | TGI (SF-539): 3.69 µM | TGI (SNB-75): 7.61 µM | TGI (SK-MEL-5): 3000 nM | TGI (ACHN): 16.1 µM | TGI (TK-10): 26.4 µM | TGI (PC-3): 21.6 µM | TGI (MDA-MB-231 [5]): 9.08 µM | CC50 (CCRF-CEM [6]): > 100 µM | CC50 (K562): > 100 µM | CC50 (COLO 205): 6.93 µM | CC50 (KM12): > 100 µM | CC50 (SF-268 [7]): > 100 µM | CC50 (LOX IMVI): 84 µM | CC50 (M14 [8]): 5.26 µM | CC50 (MDA-MB-435): 5.26 µM | CC50 (DU-145 [9]): 5.81 µM | Activity (CCRF-CEM [10]): 5.02% | Activity (CCRF-CEM [11]): 5.8% | Activity (CCRF-CEM [12]): 35.58% | Activity (CCRF-CEM [13]): 1.25% | Ratio [14]: 0.51 | Ratio [15]: 4.54 | Activity [16]: Active | Activity (Jurkat [17]): Active | Activity (Jurkat [18]): Active | Activity (MDA-MB-231 [19]): 19.5% | Activity (MDA-MB-231 [20]): 15% | Activity [21]: Toxic
